We go through 13 compounds from ChEMBL document CHEMBL2073753, “Steroid and bile acid conjugates are substrates of human multidrug-resistance protein (MRP) 4 (ATP-binding cassette C4)” (Biochem J, 2003).

Broadly, the IC50 is the concentration that gives 50% inhibition. Higher therefore signals a need for much substance.

In assay [1] the target is T1, ATP-binding cassette sub-family C member 4 (Homo sapiens, UniProt O15439).
T1 sequence (O15439 whole entry): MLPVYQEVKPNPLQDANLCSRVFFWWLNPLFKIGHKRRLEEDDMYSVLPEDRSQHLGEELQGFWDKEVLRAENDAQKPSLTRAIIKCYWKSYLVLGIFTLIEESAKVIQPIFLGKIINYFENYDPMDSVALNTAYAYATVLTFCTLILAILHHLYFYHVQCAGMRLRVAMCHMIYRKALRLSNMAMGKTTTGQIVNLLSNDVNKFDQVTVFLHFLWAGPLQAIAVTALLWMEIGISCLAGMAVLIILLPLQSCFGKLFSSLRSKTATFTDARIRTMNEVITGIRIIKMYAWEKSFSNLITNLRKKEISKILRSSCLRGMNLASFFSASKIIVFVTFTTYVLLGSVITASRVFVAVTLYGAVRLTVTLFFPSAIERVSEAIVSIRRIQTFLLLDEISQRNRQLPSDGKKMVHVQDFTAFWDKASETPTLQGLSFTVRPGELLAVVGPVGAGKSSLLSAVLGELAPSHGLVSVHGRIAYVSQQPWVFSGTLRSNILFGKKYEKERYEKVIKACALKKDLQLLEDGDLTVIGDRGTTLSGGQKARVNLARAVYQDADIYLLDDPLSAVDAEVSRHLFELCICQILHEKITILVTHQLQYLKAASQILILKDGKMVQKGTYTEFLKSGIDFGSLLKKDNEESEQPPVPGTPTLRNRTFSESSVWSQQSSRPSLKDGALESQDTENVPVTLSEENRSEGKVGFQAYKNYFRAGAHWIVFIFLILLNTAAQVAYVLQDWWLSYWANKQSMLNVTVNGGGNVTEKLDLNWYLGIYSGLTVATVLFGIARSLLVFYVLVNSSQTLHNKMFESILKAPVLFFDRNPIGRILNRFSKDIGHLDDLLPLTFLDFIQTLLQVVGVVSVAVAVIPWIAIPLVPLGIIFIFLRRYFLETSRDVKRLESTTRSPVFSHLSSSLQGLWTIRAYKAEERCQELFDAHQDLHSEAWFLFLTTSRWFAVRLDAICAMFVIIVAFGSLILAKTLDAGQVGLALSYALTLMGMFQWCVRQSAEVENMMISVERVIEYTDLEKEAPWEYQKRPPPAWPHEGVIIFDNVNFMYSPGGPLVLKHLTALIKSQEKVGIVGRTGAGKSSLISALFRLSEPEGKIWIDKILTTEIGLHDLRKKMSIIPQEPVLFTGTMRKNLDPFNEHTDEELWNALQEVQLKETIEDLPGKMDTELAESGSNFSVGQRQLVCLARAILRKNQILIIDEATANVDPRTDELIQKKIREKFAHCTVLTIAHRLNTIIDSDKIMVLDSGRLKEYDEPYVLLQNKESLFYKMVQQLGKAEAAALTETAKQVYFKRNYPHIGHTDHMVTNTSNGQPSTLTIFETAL
Kind of assay: TP_TRANSPORTER: inhibition of E217betaG uptake in membrane vesicles from MRP4-expressing HEK-293 cells. Type of assay: functional, cell membranes, HEK293, Membrane vesicle.

For assay [2], the target named is T1, ATP-binding cassette sub-family C member 4. Kind of assay: TP_TRANSPORTER: inhibition of DHEAS in membrane vesicles from MRP4-expressing Sf9 cells. Type of assay: functional, cell membranes, Membrane vesicle.
Assay [3] has the same target. Kind of assay: TP_TRANSPORTER: inhibition of E217betaG uptake in membrane vesicles from MRP4-expressing Sf9 cells. Type of assay: functional, cell membranes, Membrane vesicle.

In turn, `C[C@H](CCC(=O)O)[C@H]1CC[C@H]2[C@@H]3CC[C@@H]4C[C@H](OS(=O)(=O)O)CC[C@]4(C)[C@H]3CC[C@]12C` displayed an IC50 in assay [1] of 10 µM.
On to `C[C@]12CC[C@@H]3c4ccc(OS(=O)(=O)O)cc4CC[C@H]3[C@@H]1CC[C@H]2O`, for which the IC50 was 70 µM in assay [2] and 50 µM in assay [3].
On to `C[C@H](CCC(=O)NCC(=O)O)[C@H]1CC[C@H]2[C@@H]3[C@H](O)C[C@@H]4C[C@H](O)CC[C@]4(C)[C@H]3C[C@H](O)[C@]12C` [GLYCOCHOLIC ACID], for which, in assay [1], the IC50 was found to be 400 µM.
`C[C@H](CCC(=O)NCCS(=O)(=O)O)[C@H]1CC[C@H]2[C@@H]3CC[C@@H]4C[C@H](O)CC[C@]4(C)[C@H]3C[C@H](O)[C@]12C` [TAURODEOXYCHOLIC ACID] displayed an IC50 in assay [1] of 60 µM.
`C[C@H](CCC(=O)NCCS(=O)(=O)O)[C@H]1CC[C@H]2[C@@H]3CC[C@@H]4C[C@H](O)CC[C@]4(C)[C@H]3CC[C@]12C` [TAUROLITHOCHOLIC ACID]: in assay [1], the IC50 is 20 µM.
As to `C[C@]12CC[C@@H]3c4ccc(OS(=O)(=O)O)cc4CC[C@H]3[C@@H]1CC[C@@H]2OS(=O)(=O)O` [ESTRADIOL DISULFATE], the IC50 in assay [2] is 0.2 µM; in assay [3] it was 2 µM.
For the compound `C[C@H](CCC(=O)NCCS(=O)(=O)O)[C@H]1CC[C@H]2[C@@H]3[C@H](O)C[C@@H]4C[C@H](O)CC[C@]4(C)[C@H]3CC[C@]12C` [TAUROCHENODEOXYCHOLATE], the IC50 in assay [1] amounted to 55 µM.
Consider `C[C@]12CC[C@@H]3c4ccc(OS(=O)(=O)O)cc4CC[C@H]3[C@@H]1CCC2=O` [ESTRONE SULFURIC ACID], for which the IC50 in assay [2] was 95 µM; in assay [3], 45 µM.
Taken in the same sequence, the figures for `C[C@]12CC[C@@H]3c4ccc(O[C@@H]5O[C@H](C(=O)O)[C@@H](O)[C@H](O)[C@H]5O)cc4CC[C@H]3[C@@H]1CC[C@@H]2O` were 80 µM and 120 µM.
As for `C[C@]12CC[C@@H]3c4ccc(O)cc4CC[C@H]3[C@@H]1CC[C@@H]2O[C@@H]1O[C@H](C(=O)O)[C@@H](O)[C@H](O)[C@H]1O` [ESTRADIOL 17B GLUCURONIDE], in assay [2], the concentration for half-maximal inhibition (IC50) stood at 30 µM.
`C[C@H](CCC(=O)NCC(=O)O)[C@H]1CC[C@H]2[C@@H]3CC[C@@H]4C[C@H](OS(=O)(=O)O)CC[C@]4(C)[C@H]3CC[C@]12C` came in with an IC50 in assay [1] of 10 µM. This counts as double-digit micromolar.
The same measure, in the same setting: in the case of `C[C@H](CCC(=O)NCCS(=O)(=O)O)C1CC[C@H]2[C@@H]3CC[C@@H]4C[C@H](OS(=O)(=O)O)CC[C@]4(C)[C@H]3CC[C@]12C` (stereo partly drawn) it was 10 µM.
On to `C[C@]12CC[C@H](O[C@@H]3O[C@H](C(=O)O)[C@@H](O)[C@H](O)[C@H]3O)CC1=CC[C@@H]1[C@@H]2CC[C@]2(C)C(=O)CC[C@@H]12`, for which the IC50 in assay [2] and in assay [3] was 80 µM in each case.
